pIC50: −log10 of the molar value. Values after ≈ are worked out from the molar mass of the structure shown. Where two headings read alike, the source gives them in different places.
Assays:
[1] = tested on: Staphylococcus aureus bacteria (ATCC 9604 SV); test: Minimal inhibitory concentration (MIC), broth microdilution; type: cell-based; conditions: 24 h at 37° C.
Method: (§1) Minimal inhibitory concentrations (MICs) for Staphylococcus aureus bacteria (ATCC 9604 SV) were determined by broth microdilution methodology following National Committee for Clinical Laboratory Standards. In the MIC determinations, the compounds were incorporated into Mueller-Hinton broth (Becton Dickinson Microbiology systems, Cockeyville, Md.) at a series of concentrations. After the test organism was grown overnight in TB broth, the broths were adjusted to the turbidity equivalent to 0.05 McFarland standard. The suspensions were diluted twenty-fold into the broth containing the compounds. […] In the IC50 determination, the method was modified to allow the rapid growth of the organisms. The inoculum suspensions were adjusted to 0.1 McFarland standard and then diluted two-fold into the wells containing TB broth and the compounds. After three to five hours incubation at 37° C., the turbidity was measured at 550 nm and inhibitory activity was defined as the concentration of antimicrobial agent that inhibits 50% growth of the organism in the microdilution wells.

[2] = tested on: Staphylococcus aureus bacteria (ATCC 9604 SV); test: IC50 determination, growth inhibition by turbidity at 550 nm; type: cell-based; conditions: Staphylococcus aureus ATCC 9604 SV, turbidity at 550 nm after 3-5 h at 37° C.
Method: as §1

[3] = tested on: methicillin-resistant Staphylococcus aureus (ATCC 33591); test: In vivo mouse intraperitoneal infection, mortality and % survivors over 7 days; conditions: MRSA ATCC 33591 i.p., ICR mice; for In Vivo, single dose (% of mice rescued): single dose 1 h post inoculation; for In Vivo, double dose (% of mice rescued): 1 and 5 h post inoculation
Method: Ten male ICR mice weighing 20 grams were inoculated intraperitoneally with an LD90-100 dose (2-3×10^7 CFU/mouse) of methicillin-resistant Staphylococcus aureus (ATCC 33591) in brain-heart infusion broth containing 5% mucin. Compounds were suspended in a vehicle containing 1% cremophore EL (Sigma) in normal saline and were administered subcutaneously in a volume of 0.4 ml per mouse either 1 hour following bacterial inoculation or 1 and 5 hours post inoculation. Animals receiving two doses of drug were injected subcutaneously in the hindquarter one hour post-innoculation and in the neck area, 5 hours post-innoculation. Deaths occurring during the subsequent 7 days are recorded. Mortality and % survivor endpoints are calculated.

[4] = Staphylococcus aureus ATCC 9604 SV
[5] = ATCC9604, Staphylococcus aureus ATCC 9604 SV, read-out: MIC

MIC [1, 4] [mg/L] | pIC50 [2] | SMILES | further results
>32.9 | 5.83 | O=C(Nc1cc(C(F)(F)F)cc(C(F)(F)F)c1)Nc1cc(-c2ccc(CN3CCOCC3)cc2)nn1-c1ccc(C(F)(F)F)cc1 [Compound 88] | –
11.4 (≈ 25 µM) | 6.03 | CCOC(=O)C(=O)c1csc(NC(=O)Nc2cc(C(F)(F)F)cc(C(F)(F)F)c2)n1 [Compound 129] | –
1.22 (≈ 3.01 µM) | 6.53 | O=C(Nc1cc(C(F)(F)F)cc(C(F)(F)F)c1)Nc1nc2ccccc2s1 [Compound 156] | –
3.43 (≈ 5.99 µM) | 6.90 | O=C(Nc1cc(C(F)(F)F)cc(C(F)(F)F)c1)Nc1cc(Cc2ccccc2)nn1-c1ccc(C(F)(F)F)cc1 [Compound 74] | –
– | – | O=C(NCc1cccc(Cl)c1)Nc1nc(-c2ccc(Br)cc2)cs1 [Compound 175, 1-[4-(4-Bromo-phenyl)-thiazol-2-yl]-3-(3-chloro-benzyl)-urea] | MIC [1, 5]: 5.28 mg/L (≈ 12.5 µM); pIC50 ([2]; ATCC9604): 5.86; In Vivo, double dose (% of mice rescued) ([3]; 2 × 2 mg/kg s.c.): 0% @ 2 × 2 mg/kg; In Vivo, double dose (% of mice rescued) ([3]; 2 × 20 mg/kg s.c.): 25% @ 2 × 20 mg/kg
0.755 (≈ 1.5 µM) | 6.62 | O=C(Nc1cc(Cl)cc(Cl)c1)Nc1cc(-c2ccncc2)nn1-c1ccc(Br)cc1 [Compound 118] | –
>24.0 | 5.49 | O=C(Nc1cc(Cl)cc(Cl)c1)Nc1c2c(nn1-c1ccc(Br)cc1)CCCC2 [Compound 105] | –
– | – | O=C(Nc1cc(C(F)(F)F)cc(C(F)(F)F)c1)Nc1c(Br)cnn1-c1ccc(Br)cc1 [Compound 97, 1-(3,5-Bis-trifluoromethyl-phenyl)-3-[4-bromo-2-(4-bromo-phenyl)-2H-pyrazol-3-yl]-urea] | MIC [1, 5]: > 29.3 mg/L; pIC50 ([2]; ATCC9604): 6.97
>20.7 | 6.18 | Cc1cc(-c2csc(NC(=O)Nc3ccc(F)c(C(F)(F)F)c3)n2)ccc1F [Compound 169] | –
1.34 (≈ 3.01 µM) | 6.56 | O=C(Nc1cc(C(F)(F)F)cc(C(F)(F)F)c1)Nc1nc(Cc2ccccc2)cs1 [Compound 130] | –
5.18 (≈ 12.5 µM) | 5.55 | O=C(NCc1ccc(Cl)c(Cl)c1)Nc1nc(-c2ccc(F)c(F)c2)cs1 [Compound 182] | –
2.40 (≈ 6.01 µM) | 6.44 | O=C(Nc1ccc(F)c(C(F)(F)F)c1)Nc1nc(-c2cccc(F)c2)cs1 [Compound 165] | –
>22.6 | 4.70 | O=C(Nc1cc(C(F)(F)F)cc(C(F)(F)F)c1)Nc1nc(-c2cc(CO)no2)cs1 [Compound 154] | –
1.15 (≈ 3 µM) | 6.28 | Cc1nc(NC(=O)Nc2cc(C(F)(F)F)cc(C(F)(F)F)c2)sc1C [Compound 123] | –
>18.5 | 5.57 | Cc1cnc(NC(=O)Nc2cc(C(F)(F)F)cc(C(F)(F)F)c2)s1 [Compound 122] | –
1.19 (≈ 2.99 µM) | 6.34 | O=C(Nc1ccc(OC(F)F)cc1)Nc1nc(-c2ccc(F)c(F)c2)cs1 [Compound 160] | –
6.22 (≈ 12.5 µM) | 6.63 | O=C(Nc1cc(C(F)(F)F)cc(C(F)(F)F)c1)Nc1nc(-c2ccc(OC(F)F)cc2)cs1 [Compound 142] | –

MIC [1, 4] [mg/L] | pIC50 [2] | SMILES | further results
2.71 (≈ 5.7 µM) | 5.79 | O=C(Nc1cc(C(F)(F)F)cc(C(F)(F)F)c1)Nc1nc(-c2ccc(CCO)cc2)cs1 [Compound 146] | –
>21.7 | 6.04 | O=C(Nc1nc(-c2ccc(Cl)cc2)cs1)Nc1cc(Cl)c(Cl)cc1Cl [Compound 170] | –
10.2 (≈ 24.9 µM) | 6.21 | C=CCCc1csc(NC(=O)Nc2cc(C(F)(F)F)cc(C(F)(F)F)c2)n1 [Compound 126] | –
1.31 (≈ 3 µM) | 6.59 | O=C(Nc1cc(C(F)(F)F)cc(C(F)(F)F)c1)Nc1nc(-c2cccs2)cs1 [Compound 155] | –
<0.647 | 6.87 | O=C(Nc1ccc(SC(F)(F)F)cc1)Nc1nc(-c2ccc(F)c(F)c2)cs1 [Compound 161] | –
>20.7 | 4.53 | O=C(O)Cc1csc(NC(=O)Nc2cc(C(F)(F)F)cc(C(F)(F)F)c2)n1 [Compound 127] | –
>23.1 | 5.43 | O=C(Nc1cc(C(F)(F)F)cc(C(F)(F)F)c1)Nc1nc(-c2ccc(CO)cc2)cs1 [Compound 145] | –
1.40 (≈ 2.8 µM) | 6.89 | O=C(Nc1cc(C(F)(F)F)cc(C(F)(F)F)c1)Nc1nc(-c2ccc(C(F)(F)F)cc2)cs1 [Compound 143] | –
1.72 (≈ 3 µM) | 6.40 | Cc1cc(-c2cc(NC(=O)Nc3cc(C(F)(F)F)cc(C(F)(F)F)c3)n(-c3ccc(Br)cc3)n2)no1 [Compound 115] | –
10.8 (≈ 25 µM) | 5.20 | CC(NC(=O)Nc1nc(-c2ccc(Br)cc2)cs1)C(O)c1ccccc1 (stereo not drawn) [Compound 183] | –
<0.787 | 7.02 | O=C(Nc1ccc(Cl)c(C(F)(F)F)c1)Nc1cc(-c2ccccc2)nn1-c1ccc(C(F)(F)F)cc1 [Compound 75] | –
1.35 (≈ 3 µM) | 6.97 | O=C(Nc1cc(C(F)(F)F)cc(C(F)(F)F)c1)Nc1nc(-c2cccc(F)c2)cs1 [Compound 135] | –
>27.4 | 6.34 | O=C(Nc1cc(C(F)(F)F)cc(C(F)(F)F)c1)Nc1c2c(nn1-c1ccc(Br)cc1)CCCC2 [Compound 106] | –
13.5 (≈ 25 µM) | 5.36 | CN(C)Cc1cc(NC(=O)Nc2cc(C(F)(F)F)cc(C(F)(F)F)c2)n(-c2ccc(C(F)(F)F)cc2)n1 [Compound 90] | –
0.855 (≈ 1.5 µM) | 6.79 | O=C(Nc1cc(C(F)(F)F)cc(C(F)(F)F)c1)Nc1cc(-c2ccncc2)nn1-c1ccc(Br)cc1 [Compound 119] | –
23.4 (≈ 50.9 µM) | 6.44 | O=C(Nc1cc(C(F)(F)F)cc(C(F)(F)F)c1)Nc1nc(CCc2ccccc2)cs1 [Compound 131] | –

SMILES | MIC [1, 4] [mg/L] | pIC50 [2] | further results
CCOC(=O)c1cnn(-c2ccc(Br)cc2)c1NC(=O)Nc1cc(C(F)(F)F)cc(C(F)(F)F)c1 [Compound 94] | <0.848 | 6.58 | In Vivo, single dose (% of mice rescued) ([3]; 2 mg/kg s.c.): 0% @ 2 mg/kg; In Vivo, single dose (% of mice rescued) ([3]; 20 mg/kg s.c.): 0% @ 20 mg/kg
O=C(Nc1cc(Cl)cc(Cl)c1)Nc1cc(-c2ccccc2)nn1-c1ccc(C(F)(F)F)cc1 [Compound 77] | 12.3 (≈ 25 µM) | 7.09 | In Vivo, single dose (% of mice rescued) ([3]; 2 mg/kg s.c.): 0% @ 2 mg/kg; In Vivo, single dose (% of mice rescued) ([3]; 20 mg/kg s.c.): 12.5% @ 20 mg/kg
CC(C)(C)c1cc(NC(=O)Nc2cc(C(F)(F)F)cc(C(F)(F)F)c2)n(-c2ccc(C(F)(F)F)cc2)n1 [Compound 72] | 0.808 (≈ 1.5 µM) | 7.24 | In Vivo, single dose (% of mice rescued) ([3]; 2 mg/kg s.c.): 0% @ 2 mg/kg; In Vivo, single dose (% of mice rescued) ([3]; 20 mg/kg s.c.): 0% @ 20 mg/kg
O=C(Nc1cc(Cl)cc(Cl)c1)Nc1cc(-c2ccccc2)nn1-c1ccc(Cl)cc1 [Compound 91] | >22.9 | 6.83 | In Vivo, single dose (% of mice rescued) ([3]; 2 mg/kg s.c.): 0% @ 2 mg/kg; In Vivo, single dose (% of mice rescued) ([3]; 20 mg/kg s.c.): 0% @ 20 mg/kg
CCOC(=O)c1nc(NC(=O)Nc2cc(C(F)(F)F)cc(C(F)(F)F)c2)sc1C [Compound 128] | – | 6.29 | In Vivo, single dose (% of mice rescued) ([3]; 2 mg/kg s.c.): 0% @ 2 mg/kg; In Vivo, single dose (% of mice rescued) ([3]; 20 mg/kg s.c.): 0% @ 20 mg/kg
CC(C)(C)c1cc(NC(=O)Nc2cc(Cl)cc(Cl)c2)n(-c2ccc(C(F)(F)F)cc2)n1 [Compound 73] | – | 7.08 | In Vivo, single dose (% of mice rescued) ([3]; 2 mg/kg s.c.): 0% @ 2 mg/kg; In Vivo, single dose (% of mice rescued) ([3]; 20 mg/kg s.c.): 0% @ 20 mg/kg

Reference: patent publication US6410533B1, “Antibacterial compounds” (Genzyme Corporation, priority 2000, dated 2002)
